The supplement of paper PMC8882468
Where “and” joins values, the source holds several entries; their conditions need not be identical. Identical values can stand only once.

Legend:
Assay in all cases: CTG-3D luminescence at 96 h relative to day-0 seeding control (ratio to day 0); higher = more growth / less cytotoxicity; PDxO 3D drug screen (set 2), 96 h, CTG-3D normalised to day-0 seeding control.
MDA-MB-231 = tested on: MDA-MB-231
HCI-019 = tested on: HCI-019 (organoid from a triple-negative breast cancer xenograft)
HCI-003.E2 = tested on: HCI-003.E2 (organoid from an ER-positive breast cancer xenograft)
HCI-025 = tested on: HCI-025 (organoid from a breast cancer xenograft)
HCI-024 = tested on: HCI-024 (organoid from a breast cancer xenograft)
HCI-008 = tested on: HCI-008 (organoid from a HER2-enriched breast cancer xenograft)

CO[C@H]1C[C@@H]2CC[C@@H](C)[C@@](O)(O2)C(=O)C(=O)N2CCCC[C@H]2C(=O)O[C@H]([C@H](C)C[C@@H]2CC[C@@H](OCCO)[C@H](OC)C2)CC(=O)[C@H](C)/C=C(\C)[C@@H](O)[C@@H](OC)C(=O)[C@H](C)C[C@H](C)/C=C/C=C/C=C/1C [everolimus]
CTG-3D luminescence at 96 h
Conditions | 12.5 pM | 0.00025 µM | 0.005 µM | 0.1 µM | 1 µM | 10 µM | 100 µM | 625 fM
HCI-003.E2 | 1.22 | 1.04 | 0.796 | 0.297 | 0.0538 | 0.03 | 0.000105 | 1.67
MDA-MB-231 | 5.2 and 4.8 | 5.04 and 4.75 | 4.83 and 4.91 | 4.27 and 4.36 | 3.79 and 3.62 | 3.5 and 2.66 | -0.00539 and -0.00564 | 5.28 and 4.71

CTG-3D luminescence at 96 h
Conditions | 12.5 pM | 0.00025 µM | 0.005 µM | 0.1 µM | 1 µM | 10 µM | 100 µM | 625 fM
HCI-008, days in culture: 325 | 0.998 | 1.62 | 1.03 | 2.85 | 2.2 | 1.15 | -0.00335 | 1.28
HCI-008, days in culture: 340 | 1.1 | 1.26 | 1.65 | 0.457 | 1.04 | – | -0.000653 | 1.09
HCI-008, days in culture: 354 | 1.49 | 0.714 | 2.05 | 0.859 | 0.973 | 0.697 | -0.00248 | 0.841
HCI-008, days in culture: 382 | 1.54 | 1.42 | 1.04 | 1.1 | 0.451 | 0.406 | -0.000828 | 1.26
HCI-019, days in culture: 173 | 1.57 | 1.31 | 1.21 | 1.38 | 1.1 | 0.954 | 0.000122 | 1.63
HCI-019, days in culture: 194 | 1.27 | 0.886 | 1.15 | 1.13 | 1.33 | 0.725 | -0.00106 | 1.7
HCI-019, days in culture: 215 | 0.96 | 0.554 | 0.902 | 0.622 | 0.482 | 0.326 | 0.000571 | 1.76
HCI-024, days in culture: 202 | 0.906 | 1.18 | 0.737 | 1.7 | 1.12 | 1.74 | 0.00395 | 1.12
HCI-024, days in culture: 231 | 0.783 | 1.17 | 0.961 | 1.01 | 0.971 | 1.11 | 0.000185 | 0.943
HCI-024, days in culture: 254 | 2.18 | 0.836 | 1.02 | 1.31 | 1.11 | 1.02 | 0.00153 | 2.4
HCI-025, days in culture: 175 | 1.08 | 0.994 | 0.949 | 1.13 | 1.44 | 1.35 | 0.00118 | 1.41
HCI-025, days in culture: 189 | 1.44 | 1.22 | 1.34 | 1.21 | 0.974 | 0.917 | 0.000135 | 2.02
HCI-025, days in culture: 212 | 1.18 | 2.27 | 2.08 | 0.487 | 0.322 | 0.167 | -0.000795 | 1.43
HCI-025, days in culture: 224 | 1.8 | 2.05 | 1.58 | 0.608 | 0.581 | 0.366 | -0.00196 | 1.74

CO[C@H]1C[C@@H]2CC[C@@H](C)[C@@](O)(O2)C(=O)C(=O)N2CCCC[C@H]2C(=O)O[C@H]([C@H](C)C[C@@H]2CC[C@@H](O)[C@H](OC)C2)CC(=O)[C@H](C)/C=C(\C)[C@@H](O)[C@@H](OC)C(=O)[C@H](C)C[C@H](C)/C=C/C=C/C=C/1C [rapamycin]
CTG-3D luminescence at 96 h
Conditions | 12.5 pM | 0.00025 µM | 0.005 µM | 0.1 µM | 1 µM | 10 µM | 100 µM | 625 fM
HCI-003.E2 | 1.08 | 1.04 | 0.947 | 0.798 | 1.03 | 0.994 | 0.0195 | 1.32
MDA-MB-231 | 4.67 | 4.8 | 4.88 | 4.66 | 4.92 | 4.59 | 0.0454 | –

CTG-3D luminescence at 96 h
Conditions | 12.5 pM | 0.00025 µM | 0.005 µM | 0.1 µM | 1 µM | 10 µM | 100 µM | 625 fM
HCI-008, days in culture: 325 | 1.02 | 2.07 | 1.15 | 1.85 | 1.96 | 1.63 | 0.0243 | 1.04
HCI-008, days in culture: 340 | 0.377 | 2.04 | 1.44 | 0.883 | 1.17 | – | 0.0122 | 0.721
HCI-008, days in culture: 354 | 1.17 | 0.924 | 1.28 | 0.845 | 0.613 | 1.04 | 0.0113 | 0.658
HCI-008, days in culture: 382 | 1.67 | 1.28 | 0.869 | 1.12 | 0.658 | 1.06 | 0.0068 | 1.24
HCI-019, days in culture: 173 | 1.07 | 0.905 | 0.844 | 1.93 | 1.36 | 1.43 | 0.0117 | 1.08
HCI-019, days in culture: 194 | 1.66 | 1.04 | 1.1 | 0.588 | 1.28 | 1.54 | 0.0107 | 2.69
HCI-019, days in culture: 215 | 1.12 | 0.5 | 0.486 | 1.15 | 0.713 | 0.457 | 0.00468 | 1.43
HCI-024, days in culture: 202 | 1.07 | 1.14 | 0.789 | 1.11 | 0.752 | 1.36 | 0.00983 | 1.53
HCI-024, days in culture: 231 | 1.39 | 1.11 | 1.27 | 0.84 | 0.989 | 0.927 | 0.00464 | 1.06
HCI-024, days in culture: 254 | 1.73 | 0.635 | 1.21 | 0.879 | 0.958 | 1.05 | 0.00976 | 3.42
HCI-025, days in culture: 175 | 1.08 | 1.22 | 1.44 | 1.39 | 1.87 | 1.67 | 0.0257 | 0.977
HCI-025, days in culture: 189 | 1.35 | 1.19 | 1.11 | 0.862 | 0.888 | 0.979 | 0.0056 | 1.27
HCI-025, days in culture: 212 | 2.1 | 0.842 | 1.53 | 1.27 | 0.387 | 1.15 | 0.0154 | 1.5
HCI-025, days in culture: 224 | 1.83 | 1.19 | 0.969 | 0.734 | 1.53 | 1.31 | 0.00743 | 1.36

CC(=O)O[C@@]12CO[C@@H]1C[C@H](O)[C@@]1(C)C(=O)[C@H](O)C3=C(C)[C@@H](OC(=O)[C@H](O)[C@@H](NC(=O)OC(C)(C)C)c4ccccc4)C[C@@](O)([C@@H](OC(=O)c4ccccc4)[C@H]21)C3(C)C [docetaxel]
CTG-3D luminescence at 96 h
Conditions | 12.5 pM | 0.00025 µM | 0.005 µM | 0.1 µM | 1 µM | 10 µM | 100 µM | 625 fM
HCI-003.E2 | 0.748 | 0.702 | 0.684 | 0.627 | 0.599 | 0.261 | 0.0093 | 0.993
MDA-MB-231 | 4.86 and 2.64 | 3.88 and 2.58 | 3.24 and 2.69 | 2.84 and 2.47 | 3.11 and 2.65 | 3.34 and 2.92 | 1.24 and 1.2 | 4.81 and 2.82

CTG-3D luminescence at 96 h
Conditions | 12.5 pM | 0.00025 µM | 0.005 µM | 0.1 µM | 1 µM | 10 µM | 100 µM | 625 fM
HCI-008, days in culture: 325 | 1.01 | 1.46 | 1.35 | 1.91 | 2.06 | 1.53 | 0.0817 | 1.14
HCI-008, days in culture: 340 | 0.747 | 1.06 | 1.26 | 0.976 | 0.918 | – | 0.0677 | 0.77
HCI-008, days in culture: 354 | 1.16 | 1.01 | 1.5 | 1.16 | 0.508 | 1.23 | 0.211 | 0.885
HCI-008, days in culture: 382 | 1.56 | 1.35 | 0.719 | 0.823 | 0.446 | 0.547 | 0.0143 | 1.74
HCI-019, days in culture: 173 | 1.24 | 0.84 | 0.655 | 1.38 | 0.99 | 0.699 | 0.368 | 0.768
HCI-019, days in culture: 194 | 1.66 | 2.03 | 0.858 | 0.59 | 0.552 | 0.764 | 0.27 | 3.06
HCI-019, days in culture: 215 | 1.52 | 0.972 | 0.281 | 0.399 | 0.342 | 0.484 | 0.0546 | 1.59
HCI-024, days in culture: 202 | 0.822 | 0.868 | 0.82 | 1.17 | 0.844 | 1.08 | 0.0987 | 0.654
HCI-024, days in culture: 231 | 0.86 | 0.987 | 0.75 | 0.873 | 1.08 | 1.06 | 0.0745 | 1.06
HCI-024, days in culture: 254 | 0.926 | 1.02 | 1.14 | 1.11 | 1.87 | 0.726 | 0.241 | 1.59
HCI-025, days in culture: 175 | 0.586 | 0.61 | 0.547 | 0.494 | 0.674 | 0.771 | 0.387 | 0.704
HCI-025, days in culture: 189 | 0.971 | 0.89 | 0.694 | 1.01 | 0.76 | 0.759 | 0.286 | 1.74
HCI-025, days in culture: 212 | 2.49 | 1.38 | 0.974 | 0.822 | 0.332 | 0.385 | 0.187 | 0.772
HCI-025, days in culture: 224 | 2.29 | 2.24 | 0.853 | 0.501 | 0.639 | 0.685 | 0.065 | 1.64
